The results in this text go back to PMC9022420 (Scientific Reports, 2022).

Broadly, the IC50 is the concentration that inhibits the measured activity by half. Low values mean greater potency, high ones weaker potency.

One data set concerns pDNA (pUC18). The experiment in a line: pDNA photocleavage, agarose gel electrophoresis. The conditions noted are these: 10 µM flavin, 15 min white LED, PBS 0.1% DMSO. It is filed as biochemical. The protocol:
(§1) A 20 µL aliquot was taken after 15 min of white LED irradiation (1 × 10^5 lx). Prior to loading, 2 µL of 6X Orange-G loading dye in glycerol were added to the aliquot and mixed vigorously. The gel was electrophoresed at 80 V for 35 min with 1% agarose gels in 1X Tris–acetate-EDTA (TAE) buffer. Gels were then imaged in a Syngene G:BOX Gel Documentation System and band % quantification was performed using ImageJ Gel Analyzer.

Data set [1] concerns ssRNA (EGFP-encoding mRNA, ~ 1 k nt). The experiment in a line: ssRNA photocleavage, agarose gel electrophoresis. It is filed as biochemical. The conditions noted are these: 10 µM flavin, 15 min white LED, PBS 0.1% DMSO. The protocol: as §1
For a further data set, the system named is E. coli BL21(DE3). As to the kind of experiment: Photodynamic inactivation of E. coli (CFU counting). It is filed as cell-based. The protocol:
After an overnight aerobic culture in LB broth at 37 °C with shaking at 225 rpm, the resulting E. coli were centrifuged at 2,500 rpm for 10 min. The pellet was resuspended in PBS (Sigma, 1x, pH 7.4) to an OD600 value of 0.6 (~ 1 × 10^8 bacteria per ml). […] Aliquots of negative controls (0.5% DMSO in PBS; PBS only) and 100 μM flavin-bacteria samples were covered in foil to remain in dark, while all samples were plated onto a 96-well plate and exposed to white LED irradiation (1 × 10^5 lx) for 15 min. After 15 min of irradiation or darkness, each sample was serially diluted to its respective, appropriate dilution and plated onto an LB agar plate with 50 μg/mL kanamycin. Plates were incubated overnight at 37 °C in the dark. Survival of bacteria was determined by counting colony forming units (CFUs) the next day.
For time point data, aliquots of 100 μM flavin-bacteria solutions were taken at 5-min increments of irradiation (0, 5, 10, and 15 min) and evaluated similarly as above. Time point experiment with one-minute increments, between 0 and 5 min, were conducted for 100 μM F4-bacteria samples.

Data set [2] relates to murine hepatitis virus A59 strain (MHV-A59). As to the kind of experiment: Photodynamic inactivation of MHV-A59 (TCID50 assay in 17Cl-1 cells). It is filed as cell-based. The protocol: The efficacy of the flavins were enumerated utilizing modified methods from ISO 18,184 and Leibowitz et al.[56] […] 100 µM working stock solutions were then created by diluting each DMSO solution into PBS. To control for the effect of DMSO on MHV-A59, DMSO was diluted into PBS at the same concentration. A white light apparatus was set up to cover a 4 × 5 (row x column) area of a 96-well plate with the same level of light intensity (1 × 10^5 lx). The stock solutions were then diluted in replicates of four to a total of 180 µl in PBS at 1, 5, and 10 µM concentrations for each sample. Virus stocks of MHV-A59 were thawed on ice prior to use. 20 µl of MHV-A59 stock (1.4 × 10^9 PFU/ml) was then mixed into each well, and the 4 × 5 well matrix was treated with the light or incubated in the dark at room temperature for a specified time (5, 10, or 15 min).
After treatment, the samples were mixed into 320 µl of Gibco Difco™ Beef Extract (1.5% w/v beef extract in ddH2O; Life Technologies) and rolled for 15 min to chelate any free ions in the solution. The samples then were serially diluted (10^0–10^–7) in infectivity media (Dulbecco’s modified Eagle’s medium low glucose 1 g/L (DMEM, Life Technologies) supplemented with 2.5% fetal bovine serum (Merck), 3% tryptose phosphate broth (Merck), 1 × non-essential amino acids (Gibco), 1 × antibiotic–antimycotic (Thermo Fisher Scientific) and 1 × L-Glutamine (Gibco]) and added in triplicate to 17Cl-1 cell plates. For each sample or control there were 4 replicate treatments (in light or dark); each treatment replicate was plated in triplicate. Infected 17Cl-1 plates were incubated at 37 °C in a 5% CO2 atmosphere for 24 h. Plates were scored for cytopathic effect (CPE) by microscopy and viral titres were determined by the Reed and Muench 50% tissue culture infectious dose (TCID50) end point method. Outliers were removed from the four replicates using an outlier test. The full protocol was repeated in triplicate on different days to account for any variability in the assay.

The next data set deals with 17Cl-1 cells. As to the kind of experiment: 24 h MTS cytotoxicity assay, 17Cl-1. It is filed as cell-based, murine. The conditions noted are these: Mus musculus, 24 h incubation, dark. The procedure:
(§2) The MTS tetrazolium compound is reduced by cells into a coloured formazan product which is soluble in cell culture media. It can be detected colorimetrically between 450 and 540 nm with the measured absorbance directly proportional to the amount of metabolically active cells in culture. Cells were seeded into clear 96-well plates containing 10,000 cells/well in 100 µL complete growth medium and cultured for 24 h at 37 °C and 5% CO2. […] After further 24 h incubation at 37 °C and 5% CO2, 20 µL of CelTiter 96® AQueous One Solution (Promega) was added into each well and incubated at 37 °C, 5% CO2 for 1–4 h, according to the manufacturer’s instruction. The absorbance of each well was measured at 490 nm using a plate reader (Spark, Tecan). Control measurements included negative control of cells with DMEM, cells with DMEM containing 0.1% DMSO, cell-free culture media (blank) and cell-free sample dilutions in culture media to evaluate potential sample interferences with MTS assay. All experiments were conducted in biological triplicates. The percentage cell viability was calculated according to Eq. (1):1 Cell viability(%)=100×Absorbanceoftreatedcells-Absorbanceofblank/Absorbanceofcontrol-Absorbanceofblank
On the technique in general: Tetrazolium assays rely on reduction of a dye to a coloured formazan, in cell work by metabolically active cells.

Data set [3] has as its system WI-38 cells. The experiment in a line: Light-induced toxicity towards WI-38 cells (MTS). It is filed as cell-based, human. The conditions noted are these: 10 μM flavin, 15 min irradiation 1 × 10^5 lx. The protocol:
An adapted method reported by Maisch et al. was used to conduct phototoxicity studies on human lung fibroblasts, WI-38[28]. Cells were seeded into 96-well plates containing 10,000 cells/well in 100 µL complete growth medium and cultured for 24 h at 37 °C and 5% CO2. […] The resulting mixtures were then incubated in the dark for 5 min and then either illuminated with 1 × 10^5 lx for 5, 10 or 15 min, or incubated further in the dark for 15 min (dark control). After irradiation, the flavin solutions were removed and 100 μL of DMEM with 10% FBS and without phenol red was added to each well and incubated over night at 37 °C and 5% CO2. Subsequently, 20 µL of MTS reagent was added into each well and incubated at 37 °C and 5% CO2 for 1–4 h and the absorbance of each well was measured at 490 nm using a plate reader. Control measurements included negative control untreated cells with light and in the dark containing 0.1% DMSO and cells treated with flavins for 15 min in the dark. All experiments were conducted in biological triplicates. The percentage cell viability was calculated according to Eq. (1).

A short description of data set [4]: Flavin photostability in PBS under white LED irradiation. It is filed as physicochemical. The conditions noted are these: 30 min, 100 µM, pH 7.4. The source says: After successful synthesis and initial characterisation, we monitored the photostability of the compounds in PBS (1x, pH 7.4) which was used for PDI assays as distilled or ultrapure water destabilises bacterial cells and coronaviruses through osmotic pressures[37],[38], thereby augmenting inactivation results. […] This yields lumichrome as the major degradation product which can only act as a PS under UV-irradiation[40]. […] However, it appears that guanidino substitution in our case improves the photostability.
Figure S4: (A) Flavin photostability (100 µM) in PBS (0.1% DMSO) irradiated with 1x105 lx (35 mW/cm2) where A
= Abs at 450 nm and A0 = Abs at 450 nm at 0 min.
photostability. Experiments were performed using a quartz cuvette and measured using an Agilent Cary 300
(1 picture or pasted object on this page, not shown here)

Data set [5] relates to WI-38 cells. As to the kind of experiment: 24 h MTS cytotoxicity assay, WI-38. The conditions noted are these: Homo sapiens, 24 h incubation, dark. It is filed as cell-based. The procedure:
as §2

Setting [6] is: 5 µM flavin, 10 min irradiation.

With `Cc1cc2nc3c(=O)[nH]c(=O)nc-3n(C[C@H](O)[C@H](O)[C@H](O)CO)c2cc1C` [Riboflavin, reference compound], the “% NC (nicked coiled pDNA after photocleavage)” value with pDNA (pUC18) is reported as 11%. The “% cleaved ssRNA” value in data set [1] is given as 28%. Also, the “E. coli log10 reduction of CFUs” value in the data set on E. coli BL21(DE3) (1 µM flavin, 15 min irradiation (31.5 J/cm^2)) is listed as 0.2 log10; with E. coli BL21(DE3) (1 µM flavin, 15 min irradiation (31.5 J/cm^2), listed as riboflavin), “no inactivation”; in the data set on E. coli BL21(DE3) (10 µM flavin, 15 min irradiation) it was 0.2 log10; in the data set on E. coli BL21(DE3) (100 µM flavin, 5 min irradiation (10.5 J/cm^2)) it was 0.0 log10; in the data set on E. coli BL21(DE3) (100 µM flavin, 10 min irradiation), 0.0 log10; with E. coli BL21(DE3) (100 µM flavin, 15 min irradiation), 0.0 log10. The “E. coli log10 reduction of CFUs” value with E. coli BL21(DE3) (100 µM flavin, 15 min irradiation, listed as riboflavin) is recorded as “no activity”. Further, the “MHV-A59 log10 reduction in viral titre” value in data set [2] (1 µM flavin, 10 min irradiation (21.0 J/cm^2)) was found to be 1.2 log10; in data set [2] (setting [6]), 3.2 log10; in data set [2] (10 µM flavin, 5 min irradiation (10.5 J/cm^2)) it was 2.7 log10; in data set [2] (10 µM flavin, 10 min irradiation), 3.4 log10; in data set [2] (10 µM flavin, 15 min irradiation (31.5 J/cm^2)) it was 3.7 log10. Also, the “MHV-A59 viral load reduction” value in data set [2] (setting [6]) is reported as over 99.9%. Further, the IC50 with 17Cl-1 cells and with WI-38 cells [5] was over 100 µM in each case. Further, the “reduction in cell viability (light-induced toxicity)” value in the data set with WI-38 cells [3] is on record as “no decrease in cell viability”. Also, in data set [4], the photodecomposition / degradation was determined as 80%.
